Experimental findings from ChEMBL document CHEMBL1121794, “Octanol-physiological buffer distribution coefficients of lipophilic amines by reversed-phase high-performance liquid chromatography and their correlation with biological activity” (J Med Chem, 1981) are described below.

Test in data set [1]: not given
This is another data set of the same source.

Test in data set [2]: not given
This is another data set of the same source.

Test in data set [3]: not given
The source holds these as a separate data set.

Test in data set [4]: not given
This is another data set of the same source.

For data set [5] the following is noted: octanol/water.
Description: Partition coefficient (logD, measured by HPLC, log k')
Test in data set [6]: not given
This is another data set of the same source.

Test in data set [7]: not given
The source holds these as a separate data set.

A short description of data set [8]: Partition coefficient (logD7.4). As to conditions: octanol/water, pH 7.4.
Test in data set [9]: not given
The source holds these as a separate data set.

Test in data set [10]: not given
This is another data set of the same source.

Test in data set [11]: not given
This is another data set of the same source.

Test in data set [12]: not given
The source holds these as a separate data set.

Test in data set [13]: not given
This is another data set of the same source.

Test in data set [14]: not given
The source holds these as a separate data set.

Data set [15] is described as follows: physchem. As to conditions: octanol/water, pH 7.4.
Test in data set [16]: not given
This is another data set of the same source.

Data set [17] can be described thus: physchem. The conditions noted are these: octanol/water.
Description: Partition coefficient (logD) (HPLC)
Data set [18] can be described thus: physchem. The conditions noted are these: octanol/water. This is another data set of the same source.
Description: Partition coefficient (logD) (HPLC)

With `c1ccc2nc3ccccc3cc2c1` [ACRIDINE], the “Log k'” value amounted to 2.103. Further, in [1], the “Log k'” value is reported as 2.146. Moreover, the “Log k'” value in [2] worked out at 1.447. Also, in [3], the “Log k'” value was found to be 0.775. Further, the “Log k'” value in data set [4] was determined as 1.501. The “Log k'” value in [5] is given as 1.993. Also, the “Log k'” value in data set [6] was 1.556. Further, the “Log k'” value in data set [7] is listed as 0.685. Also, in data set [8], the logD is 3.29.
Consider `c1ccccc1` [BENZENE], for which, in data set [5], the “Log k'” value stood at 0.874.
As for `CN1CCC(=C2c3ccccc3C=Cc3ccccc32)CC1` [CYPROHEPTADINE], the “Log k'” value is reported as 1.529 in data set [9]; 1.715 in data set [10]; 1.999 in data set [1]; 1.715 in [11]; 1.527 in data set [12]; 1.516 in data set [4]. Moreover, the “Log k'” value is 1.43 in data set [13], 1.984 in data set [14], 1.853 in [5] and 1.037 in [16]. Further, the log distribution coefficient (logD) in “physchem [15]” amounted to 3.14; in [8] it was 3.11.
Regarding `CCCCOc1cc(C(=O)NCCN(CC)CC)c2ccccc2n1` [DIBUCAINE], the “Log k'” value stood at 1.642. Further, in data set [1], the “Log k'” value turned out to be 1.651. For the same compound, the “Log k'” value in [2] was 1.11. In addition, the “Log k'” value in [3] is reported as 0.915. The “Log k'” value in data set [4] is 1.064. Also, the “Log k'” value in [5] amounted to 1.588. Besides, the “Log k'” value in data set [6] stood at 1.215. The “Log k'” value in data set [7] is recorded as 0.501. In addition, in data set [8], the pH-dependent lipophilicity (logD) worked out at 2.91.
The compound `COc1ccccc1N1CCN(CCCC(=O)c2ccc(F)cc2)CC1` [FLUANISONE] showed a Log k' of 1.64. In addition, the “Log k'” value in [1] is 1.669. Besides, the “Log k'” value in data set [2] turned out to be 1.64. Further, the “Log k'” value in data set [3] came to 0.805. For the same compound, in [4], the “Log k'” value amounted to 0.996. For the same compound, the “Log k'” value in data set [5] is listed as 1.448. The “Log k'” value in data set [6] is 1.175. Further, the “Log k'” value in [7] is on record as 1.063. In [8], this compound showed a pH-dependent lipophilicity (logD) of 2.93.
For `CN(C)CCCN1c2ccccc2CCc2ccccc21` [IMIPRAMINE], the “Log k'” value in [9] turned out to be 0.806; in data set [11] it was 1.145; in data set [12], 0.934; in [14] it was 1.227; in [5] it was 1.194.
`Cc1cccc(C)c1NC(=O)C1CCCCN1C` (configuration not stated) [MEPIVACAINE] gave a Log k' of 0.008. In [1], the “Log k'” value came to 0.051. In “physchem [17]”, the logD stood at 1.26. Further, in data set [2], the “Log k'” value came out at 0.008. In data set [3], the “Log k'” value is -0.462. Also, the “Log k'” value in data set [4] is on record as -0.564. In addition, in the data set “physchem [18]”, the logD was determined as 1.22. Further, the “Log k'” value in data set [5] is -0.098. For the same compound, the “Log k'” value in data set [6] is -0.429. In addition, in [7], the “Log k'” value is -0.492. This compound showed a logD in [8] of 1.27.
For the compound `CN1CCCCC1CCN1c2ccccc2Sc2ccc([S+](C)[O-])cc21` (configuration not stated) [MESORIDAZINE], the log distribution coefficient (logD) amounted to 1.78 in “physchem [17]”, 1.84 in the data set “physchem [18]” and 1.8 in [8]. The “Log k'” value in data set [5] was determined as 1.045; in [6] it was 0.923.
Take `O=[N+]([O-])c1ccccc1` [NITROBENZENE]: in [5], the “Log k'” value was determined as 0.564. Also, in data set [8], the logD is 1.88.
Turning to `CCC(=O)O[C@](Cc1ccccc1)(c1ccccc1)[C@H](C)CN(C)C` [PROPOXYPHENE], the “Log k'” value was 1.259. The “Log k'” value in data set [10] stood at 0.656. Further, the “Log k'” value in [1] is recorded as 1.263. In addition, in [2], the “Log k'” value came to 0.769. Moreover, the “Log k'” value in data set [3] is reported as 0.673. Besides, in data set [5], the “Log k'” value came to 1.124. In addition, in data set [6], the “Log k'” value was 0.795. Moreover, the “Log k'” value in data set [7] was determined as 0.483. The pH-dependent lipophilicity (logD) in [8] is 2.36.
